Measured values taken from ChEMBL document CHEMBL1201862, “PubChem BioAssay data set” (2004).
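1) Cells in 96-well plates. 2) Compound, 48 h, 5 concentrations. 3) Linear interpolation between surrounding doses. 4) Unreached endpoint = highest concentration. GI50 is the concentration that inhibits growth by half.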 Calls of active or inactive are those of the source. Cut-off read from the data, not from the text of the source: active = GI50 up to about 1.1 µM and inactive = higher.

Assays:
Assay in all cases: DTP human tumour cell line panel, 48 h
[1] = test system: NCI/ADR-RES
[2] = test system: SK-MEL-28
[3] = test system: KM12
[4] = test system: SNB-19
[5] = test system: 786-0
[6] = test system: HL-60
[7] = test system: MDA-MB-231
[8] = test system: HOP-62
[9] = test system: NCI-H226
[10] = test system: UACC-62
[11] = test system: MDA-N
[12] = test system: MOLT-4
[13] = test system: K562
[14] = test system: SK-MEL-2
[15] = test system: NCI-H460
[16] = test system: ACHN
[17] = test system: OVCAR-3
[18] = test system: HOP-92
[19] = test system: DMS-114
[20] = test system: OVCAR-5

| SMILES | GI50 [1] | GI50 [2] | GI50 [3] | GI50 [4] | GI50 [5] | GI50 [6] | GI50 [7] | GI50 [8] | GI50 [9] | GI50 [10] | GI50 [11] | GI50 [12] | GI50 [13] | GI50 [14] | GI50 [15] | GI50 [16] | GI50 [17] | GI50 [18] | GI50 [19] | GI50 [20] |
| --- | --- | --- | --- | --- | --- | --- | --- | --- | --- | --- | --- | --- | --- | --- | --- | --- | --- | --- | --- | --- |
| COc1ccc(/C=C2\C(=O)NC(=O)c3ccccc32)cc1OC | 42.2 µM (inactive) | > 77.3 µM (inactive) | 39.4 µM (inactive) | 25.5 µM (inactive) | 16.8 µM (inactive) | 2.68 µM (inactive) | 48.2 µM (inactive) | 32.5 µM (inactive) | 49.4 µM (inactive) | 25.6 µM (inactive) | > 43.6 µM (inactive) | 5.77 µM (inactive) | 3.15 µM (inactive) | 45.3 µM (inactive) | 45.6 µM (inactive) | 32.2 µM (inactive) | 7.48 µM (inactive) | 7.96 µM (inactive) | 5 µM (inactive) | 60.8 µM (inactive) |
| O=[N+]([O-])c1cccc2nc3ccccc3c(NCCO)c12 | 0.00566 µM (active) | 0.00217 µM (active) | 0.00366 µM (active) | 0.00977 µM (active) | 0.00315 µM (active) | 0.00325 µM (active) | 0.00215 µM (active) | 0.000539 µM (active) | 0.00248 µM (active) | 0.00237 µM (active) | 0.002 µM (active) | 0.00407 µM (active) | 0.000237 µM (active) | 0.00502 µM (active) | 0.000767 µM (active) | 0.00151 µM (active) | 0.000486 µM (active) | 0.0016 µM (active) | 0.00316 µM (active) | 0.00219 µM (active) |
| COc1c(O)c(O)cc2c1-c1ccc(OC)c(=O)cc1C(NC(C)=O)CC2 (stereo not given) | 29 µM (inactive) | 8.07 µM (inactive) | 3.43 µM (inactive) | 5.51 µM (inactive) | 8.04 µM (inactive) | 4.85 µM (inactive) | 4.94 µM (inactive) | 7.6 µM (inactive) | 21 µM (inactive) | 4.36 µM (inactive) | 1.69 µM (inactive) | 6.24 µM (inactive) | 3.57 µM (inactive) | 3.15 µM (inactive) | 6.07 µM (inactive) | 37.5 µM (inactive) | 2.21 µM (inactive) | 2.7 µM (inactive) | 2.49 µM (inactive) | 40 µM (inactive) |
